In patent US8258140B2 (Astrazeneca AB, priority 2009, dated 2012) one finds IC50 data, which are given here for 13 molecules.

Structures are written as SMILES.

For this assay, the target named is T1, Androgen Receptor (AR) in the LNCaP prostate carcinoma cell line (Homo sapiens, UniProt P10275, T878A).
T1 construct: cell based immuno-fluorescence assay using the LNCaP prostate epithelial cell line; host or cells: LNCaP clone FGC
T1 sequence (P10275 1-920 T878A): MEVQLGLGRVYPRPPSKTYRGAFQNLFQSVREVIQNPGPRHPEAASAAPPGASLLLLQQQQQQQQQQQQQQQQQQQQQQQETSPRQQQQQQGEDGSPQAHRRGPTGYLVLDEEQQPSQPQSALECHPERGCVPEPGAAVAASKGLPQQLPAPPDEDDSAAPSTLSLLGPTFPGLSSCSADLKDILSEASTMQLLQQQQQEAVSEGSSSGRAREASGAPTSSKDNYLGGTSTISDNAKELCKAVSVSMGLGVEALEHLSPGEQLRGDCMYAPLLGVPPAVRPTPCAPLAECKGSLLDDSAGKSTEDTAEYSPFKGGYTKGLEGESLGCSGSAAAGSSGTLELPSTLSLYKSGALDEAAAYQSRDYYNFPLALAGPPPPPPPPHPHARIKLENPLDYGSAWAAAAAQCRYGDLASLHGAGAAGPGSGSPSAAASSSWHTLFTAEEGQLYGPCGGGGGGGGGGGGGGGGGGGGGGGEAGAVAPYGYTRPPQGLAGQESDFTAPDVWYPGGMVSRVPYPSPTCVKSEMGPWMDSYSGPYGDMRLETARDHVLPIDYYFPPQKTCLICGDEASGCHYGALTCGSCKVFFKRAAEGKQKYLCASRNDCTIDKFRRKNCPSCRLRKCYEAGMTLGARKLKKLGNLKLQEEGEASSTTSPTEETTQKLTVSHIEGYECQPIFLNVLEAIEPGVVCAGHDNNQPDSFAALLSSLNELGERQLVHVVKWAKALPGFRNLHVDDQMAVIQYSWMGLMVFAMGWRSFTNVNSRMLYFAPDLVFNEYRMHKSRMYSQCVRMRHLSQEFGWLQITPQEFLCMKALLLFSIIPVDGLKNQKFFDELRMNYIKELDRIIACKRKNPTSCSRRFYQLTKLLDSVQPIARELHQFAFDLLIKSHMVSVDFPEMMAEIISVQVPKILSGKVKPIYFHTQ
The assay is described as follows: LNCaP Androgen Receptor Down-Regulation Cell Assay (immunofluorescence end point). It is filed as cell-based. As to conditions: LNCaP cells, compound incubation 20-22 hours, concentration giving 50% reduction of the AR signal. On the procedure: The ability of compounds to reduce Androgen Receptor (AR) numbers was assessed in a cell based immuno-fluorescence assay using the LNCaP prostate epithelial cell line.
This immunofluorescence end point assay measures the ability of a test compound to down-regulate and reduce measured levels of the AR in the LNCaP prostate carcinoma cell line (LNCaP clone FGC (CRL-1740) obtained from the American Type Culture Collection (ATCC)).
LNCaP cells were cultured in Growth Medium (phenol red free Roswell Park Memorial Institute (RPMI) 1640 (Invitrogen Code no. 11835-063) containing 2 mM L-Glutamine (Invitrogen Code no. 25030-024) and 1% (v/v) Penicillin/Streptomycin (10000 units/ml Penicillin and 10000 μg/ml of Streptomycin utilising penicillin G (sodium salt) and streptomycin sulphate: prepared in normal saline, Invitrogen Code no. 15140122) and 10% (v/v) foetal bovine serum (FBS)) in a 5% CO2 air incubator at 37° C. Cells for assay were harvested from T175 stock flasks by washing once in PBS (phosphate buffered saline, pH 7.4) (Invitrogen Code no. 14190-094) and harvested using 5 mls of 1× Trypsin/ethylaminediaminetetraacetic acid (EDTA) (10× Trypsin-EDTA, 5.0 g/L Trypsin, 2.0 g/L of EDTA.4Na and 8.5 g/L of NaCl, without Phenol Red, Invitrogen Code no. 15400-054) diluted in PBS solution. A 5 ml volume of Growth Medium was added to each flask (as above except that 5% (v/v) charcoal stripped FBS (HyClone Code no. SH30068.03) was included instead of 10% (v/v) FBS). Cells were syringed at least twice using a sterile 18 G×1.5″ (1.2×40 mm) broad gauge needle and cell density was measured using a haemocytometer. Cells were further diluted in Growth Medium plus 5% (v/v) charcoal stripped FBS and seeded at a density of 6.5×10^3 cells per well (in 90 ul) into transparent, black, tissue culture treated 96 well plates (Packard, No. 6005182).
Test data reported herein was generated using two different compounds preparation and dosing methods. In method (1) a 10 mM compound stock solution in 100% (v/v) DMSO was serially diluted in 4-fold steps in 100% (v/v) DMSO using a Thermo Scientific Matrix SerialMate. The diluted compounds were then further diluted 1 in 30 in assay media using a Thermo Scientific Matrix PlateMate and a 10 μl aliquot of this dilution was dosed to cells manually using a multi-channel pipette. In method (2) starting with a 10 mM compound stock solution, the Labcyte Echo 550 was used to generate a compound concentration response set diluted in 30 μl of assay media. The Echo 550 is a liquid handler that uses acoustic technology to perform direct microplate-to-microplate transfers of DMSO compound solutions. The system can be programmed to transfer volumes as low as 2.5 nL in multiple increments between microplates and in so doing generates a serial dilution of compound which is then back-filled to normalise the DMSO concentration across the dilution range. A 10 μl volume of diluted compound is then dosed to cells using a Thermo Scientific Matrix PlateMate.
Plates were incubated overnight at 37° C., 5% CO2. Wells were then dosed with compound prepared by one of the 2 methods above and further incubated for 20-22 hours at 37° C., 5% CO2. Plates were fixed by the addition of 20 μl of 10% (v/v) formaldehyde solution (in PBS) to each well (final formaldehyde conc.=1.67% (v/v)) and left at room temperature for 10 mins. This fixative solution was removed and cells were washed with 250 μl of PBS/0.05% (v/v) Tween 20 (PBST) using an automated plate washer. This process was then repeated twice more.
Immunostaining was performed at room temperature. Cells were permeabilised by the addition of 35 μl of PBS containing 0.5% Tween 20 and incubated for 1 hour at room temperature. Permeabilisation solution was removed and cells were washed with 250 μl of PBST using an automated plate washer. This process was then repeated twice more. […]
As to `Cn1nccc1CCOc1ccc(C2(O)CCN(C3=Nn4c(nnc4C(F)(F)F)CC3)CC2)cc1` [Example 36, 4-{4-[2-(1-methyl-1H-pyrazol-5-yl)ethoxy]phenyl}-1-[3-(trifluoromethyl)-7,8-dihydro[1,2,4]triazolo[4,3-b]pyridazin-6-yl]piperidin-4-ol], the IC50 (in general, the concentration at which inhibition is half-maximal) was 4.5 µM. `CCc1nccn1CCOc1ccc(N2CCN(C3=Nn4c(nnc4C(F)(F)F)CC3)CC2)cc1` [Example 39, 6-(4-{4-[2-(2-ethyl-1H-imidazol-1-yl)ethoxy]phenyl}piperazin-1-yl)-3-(trifluoromethyl)-7,8-dihydro[1,2,4]triazolo[4,3-b]pyridazine] showed an IC50 of 4.8 µM. Regarding `FC(F)(F)c1ccn(CCOc2ccc(N3CCN(C4=Nn5c(nnc5C(F)(F)F)CC4)CC3)cc2)n1` [Example 40, 3-(trifluoromethyl)-6-[4-(4-{2-[3-(trifluoromethyl)-1H-pyrazol-1-yl]ethoxy}phenyl)piperazin-1-yl]-7,8-dihydro[1,2,4]triazolo[4,3-b]pyridazine], the midpoint of inhibition, the IC50, lay at 1.5 µM. On to `CCc1nccn1CCOc1ccc(C2CCN(C3=Nn4c(nnc4C(F)(F)F)CC3)CC2)cc1` [Example 42, 6-(4-{4-[2-(2-ethyl-1H-imidazol-1-yl)ethoxy]phenyl}piperidin-1-yl)-3-(trifluormethyl)-7,8-dihydro[1,2,4]triazolo[4,3-b]pyridazine], for which the IC50 was found to be 0.66 µM.

`Cc1cc(C)n(CCOc2ccc(C3CCN(C4=Nn5c(nnc5C(F)(F)F)CC4)CC3)cc2)n1` [Example 43, 6-(4-{4-[2-(3,5-dimethyl-1H-pyrazol-1-yl)ethoxy]phenyl}piperidin-1-yl)-3-(trifluoromethyl)-7,8-dihydro[1,2,4]triazolo[4,3-b]pyridazine] showed a half-inhibitory concentration (IC50) of 1 µM. On to `FC(F)(F)c1ccn(CCOc2ccc(C3CCN(C4=Nn5c(nnc5C(F)(F)F)CC4)CC3)cc2)n1` [Example 44, 3-(trifluoromethyl)-6-[4-(4-{2-[3-(trifluoromethyl)-1H-pyrazol-1-yl]ethoxy}phenyl)piperidin-1-yl]-7,8-dihydro[1,2,4]triazolo[4,3-b]pyridazine], for which half-maximal inhibition (IC50) was put at 0.55 µM. As for `CC(=O)N1CCN(CCOc2ccc(C3(O)CCN(C4=Nn5c(nnc5C(F)(F)F)CC4)CC3)cc2)CC1` [Example 45, 4-{4-[2-(4-acetylpiperazin-1-yl)ethoxy]phenyl}-1-[3-(trifluoromethyl)-7,8-dihydro[1,2,4]triazolo[4,3-b]pyridazin-6-yl]piperidin-4-ol], the figure is 12 µM; as for `CCN1CCN(CCOc2ccc(C3CCN(C4=Nn5c(nnc5C(F)(F)F)CC4)CC3)cc2)CC1=O` [Example 46, 1-ethyl-4-[2-(4-{1-[3-(trifluoromethyl)-7,8-dihydro[1,2,4]triazolo[4,3-b]pyridazin-6-yl]piperidin-4-yl}phenoxy)ethyl]piperazin-2-one], 1.5 µM; as for `O=C1CN(CCOc2ccc(C3CCN(C4=Nn5c(nnc5C(F)(F)F)CC4)CC3)cc2)CCN1C1CC1` [Example 47, 1-cyclopropyl-4-[2-(4-{1-[3-(trifluoromethyl)-7,8-dihydro[1,2,4]triazolo[4,3-b]pyridazin-6-yl]piperidin-4-yl}phenoxy)ethyl]piperazin-2-one], 1.4 µM.

Consider `CC(=O)N1CCCN(CCOc2ccc(C3CCN(C4=Nn5c(nnc5C(F)(F)F)CC4)CC3)cc2)CC1` [Example 48, 6-(4-{4-[2-(4-acetyl-1,4-diazepan-1-yl)ethoxy]phenyl}piperidin-1-yl)-3-(trifluoromethyl)-7,8-dihydro[1,2,4]triazolo[4,3-b]pyridazine], for which the IC50 came to 0.7 µM. With `C[C@@H]1C(=O)N(C)CCN1CCOc1ccc(C2CCN(C3=Nn4c(nnc4C(F)(F)F)CC3)CC2)cc1` [Example 49, (3R)-1,3-dimethyl-4-[2-(4-{1-[3-(trifluoromethyl)-7,8-dihydro[1,2,4]triazolo[4,3-b]pyridazin-6-yl]piperidin-4-yl}phenoxy)ethyl]piperazin-2-one] the figure was 0.045 µM. For `C[C@H]1C(=O)N(C)CCN1CCOc1ccc(C2CCN(C3=Nn4c(nnc4C(F)(F)F)CC3)CC2)cc1` [Example 50, (3S)-1,3-dimethyl-4-[2-(4-{1-[3-(trifluoromethyl)-7,8-dihydro[1,2,4]triazolo[4,3-b]pyridazin-6-yl]piperidin-4-yl}phenoxy)ethyl]piperazin-2-one], it took 0.76 µM to reach half-maximal inhibition (IC50). The molecule `CC(=O)N1CCN(CCOc2ccc(C3CCN(C4=Nn5c(nnc5C(F)(F)F)CC4)CC3)cc2)C[C@@H]1C` [Example 52, 6-[4-(4-{2-[(3S)-4-acetyl-3-methylpiperazin-1-yl]ethoxy}phenyl)piperidin-1-yl]-3-(trifluoromethyl)-7,8-dihydro[1,2,4]triazolo[4,3-b]pyridazine] had an IC50 of 0.32 µM.
